In patent US20220135526A1, “QUATERNARY AMMONIUM SALT COMPOUND, PREPARATION METHOD THEREFOR AND USE THEREOF” (WEST CHINA HOSPITAL, SICHUAN UNIVERSITY, priority 2019, published 2022):
Counter-ions that a name gives are not always drawn.

Tests used:
back skin of SD rat = assay: Local anesthetic effect by subcutaneous infiltration (back skin, Von Frey fiber 100 g); format: in vivo; conditions: SD rats, 0.5 mL subcutaneous in saline; compounds 6 mmol/L, controls 0.75% (22 mmol/L) and 2% (74 mmol/L)
Method: After the back of SD rat weighing 250-300 g (half female and half male) was shaved and disinfected, a circle with a diameter of about 1.5 cm was drawn on the side of the exposed back, and the circle is divided into 6 equal parts. […] Among the Von Frey fiber yarns, the one with a strength of 100 g was bound to the needle for local skin stimulation. One minute After the drug was injected, the above method was used to stimulate in 6 divisions. […] If back skin contraction was observed, the local anesthetic effect was considered as loss. […] Each compound was tested with 10 rats.

rat's sciatic nerve = assay: Local anesthetic effect after injection near the rat sciatic nerve (von Frey stimulation; Postural Extensor Thrust for motor function); format: in vivo; conditions: SD rats, 0.5 mL near sciatic nerve, compounds 20 mmol/mL; for Duration of motor block: Postural Extensor Thrust; for Duration of motor block / Duration of sensory block: levobupivacaine 0.75%, lidocaine 2%; for Local anesthesia onset time: levobupivacaine 0.75% (22 mmol/L), lidocaine 2% (74 mmol/L); for Duration of sensory block: von Frey
Method: Dosage: for lidocaine group, lidocaine was formulated with distilled water into a solution at the concentration of 2% (74 mmol/L); for levobupivacaine group, levobupivacaine was formulated with distilled water into a solution at the concentration of 0.75% (22 mmol/L); the compound of the present invention was formulated with distilled water into a solution at the concentration of […].
The injection volume for each rat was 0.5 mL, which was guided by a nerve locator and injected near the rat's sciatic nerve. Using von Frey stimulator, the rats were stimulated the soles of the feet in the injected side, to observe the effect of local anesthesia. Meanwhile, Postural Extensor Thrust (PET) was used to evaluate the motor function of the rat: the rat was lifted vertically and the hindlimb in the injected side pedaled on the platform of the electronic balance. […] When the limb was completely paralyzed, the reading was the limb's own weight, about 20 g. If the measured value was more than half of the difference between the baseline and the limb weight, the motor function was regarded as recovery, and if the value was […], the motor function was regarded as loss.

Compound	Duration of local anesthesia (median) (back skin of SD rat) [h]	Local anesthesia onset time (median) (back skin of SD rat) [min]	Duration of motor block (rat's sciatic nerve) [h]	Local anesthesia onset time (rat's sciatic nerve) [min]	Duration of sensory block (rat's sciatic nerve) [h]
CCCCN1CCCC[C@H]1C(=O)Nc1c(C)cccc1C [0.75% levobupivacaine hydrochloride, levobupivacaine hydrochloride, reference compound]	7	1	2.5	1	2.5
CCCCC[N+](CCCCC)(CCCN1CCCCC1C(=O)Nc1c(C)cccc1C)CC(=O)Nc1c(C)cccc1C (stereo not shown) [Example 1 product]	25	1	21	3	32
CCCCCCCCCC[N+](CCCCCCCCCC)(CCOCCN1CCCCC1C(=O)Nc1c(C)cccc1C)CC(=O)Nc1c(C)cccc1C (stereo not shown) [Example 2 product]	44	2	33	4	44
CCCCCC[N+](CCCCCC)(CCOCCOCCN1CCCCC1C(=O)Nc1c(C)cc(O)cc1C)CC(=O)Nc1c(C)cc(OC)cc1C (stereo not shown) [Example 4 product]	35	1	13	7	23
CCCCC[N+](CCCCC)(CCCN1CCCCC1C(=O)Nc1c(C)cccc1C)CC(=O)Nc1c(C)cccc1C.Cl.[Br-] (stereo not shown) [Example 10 product]	56	1	19	3	25
CCCCC[N+](CCCCCO)(CCCCCCN1CCCCC1C(=O)Nc1c(C)cccc1C)CC(=O)Nc1c(C)cccc1C.[Br-] (stereo not shown) [Example 12 product]	66	3	11	5	42
CCCCC[N+](CCO)(CCCCCCN1CCCCC1C(=O)Nc1c(C)cccc1C)CC(=O)Nc1c(C)cccc1C.[Br-] (stereo not shown) [Example 13 product]	53	4	14	4	55
CCCCC[N+](CCCO)(CCCCCCN1CCCCC1C(=O)Nc1c(C)cccc1C)CC(=O)Nc1c(C)cccc1C.[Br-] (stereo not shown) [Example 14 product]	75	2	13	5	41
CCCCC[N+](CO)(CCCCCCN1CCCCC1C(=O)Nc1c(C)cccc1C)CC(=O)Nc1c(C)cccc1C.[Br-] (stereo not shown) [Example 15 product]	73	4	16	5	44
CCCCC[N+](CCCCO)(CCCCCCN1CCCCC1C(=O)Nc1c(C)cccc1C)CC(=O)Nc1c(C)cccc1C.[Br-] (stereo not shown) [Example 16 product]	54	2	17	5	60
Cc1cccc(C)c1NC(=O)C[N+](CCO)(CCO)CCCCCCN1CCCCC1C(=O)Nc1c(C)cccc1C (stereo not shown) [Example 17 product]	56	2	18	5	37
Cc1cccc(C)c1NC(=O)C[N+](CCCO)(CCCCO)CCCCCCN1CCCCC1C(=O)Nc1c(C)cccc1C.[Br-] (stereo not shown) [Example 18 product]	49	1	16	2	38
Cc1cccc(C)c1NC(=O)C[N+](CO)(CCCCO)CCCCCCN1CCCCC1C(=O)Nc1c(C)cccc1C.[Br-] (stereo not shown) [Example 19 product]	62	1	10	5	39
CCCCC[N+](CCCCCCN1CCCCC1C(=O)Nc1c(C)cccc1C)(CCOCC)CC(=O)Nc1c(C)cccc1C (stereo not shown) [Example 20 product]	47	3	14	5	54
COCC[N+](CCCCCCN1CCCCC1C(=O)Nc1c(C)cccc1C)(CCOC)CC(=O)Nc1c(C)cccc1C.[Br-] (stereo not shown) [Example 21 product]	64	1	13	5	47
CCOCCC[N+](CCCCCCN1CCCCC1C(=O)Nc1c(C)cccc1C)(CCCOCC)CC(=O)Nc1c(C)cccc1C.[Br-] (stereo not shown) [Example 22 product]	63	2	15	3	47
CCCCC[N+](CCCCCCN1CCCCC1C(=O)Nc1c(C)cccc1C)(CCCOC)CC(=O)Nc1c(C)cccc1C.[Br-] (stereo not shown) [Example 23 product]	83	2	14	5	54
CCCCCCCCCC[N+](CCCCCCCC)(CCCCCCCCCCCN1CCCCC1C(=O)Nc1c(C)cc(C)cc1C)CC(=O)Nc1c(C)cccc1C (stereo not shown) [Example 24 product]	89	2	11	4	54
CCCCC[N+](CCCCCCCCN1CCCCCCC1C(=O)Nc1c(C)cccc1C)(CCOCC)CC(=O)Nc1c(C)cccc1C (stereo not shown) [Example 25 product]	82	3	12	5	44
CCCCC[N+](CCCCO)(CCCCCCCN1CCCCCC1C(=O)Nc1c(C)cccc1C)CC(=O)Nc1c(C)cccc1C (stereo not shown) [Example 26 product]	92	3	16	5	45
CCCOCCCC[N+](CCCCCC(=O)O)(CCCSCCCN1CCCCC1C(=O)Nc1c(C)cccc1C)CC(=O)Nc1c(C)cccc1C (stereo not shown) [Example 29 product]	73	2	15	5	50
Cc1cccc(C)c1NC(=O)C[N+]1(CCCOCCCN2CCCCC2C(=O)Nc2c(C)cccc2C)CC(C)OC(C)C1 (stereo not shown) [Example 32 product]	56	2	17	2	46
CCOCC[N+](CCCCO)(CCCCCCN1CCCCC1C(=O)Nc1c(C)cccc1C)CC(=O)Nc1c(C)cccc1C (stereo not shown) [Example 35 product]	92	2	13	2	54
COCC[N+](CCCCO)(CCCCCCN1CCCCC1C(=O)Nc1c(C)cccc1C)CC(=O)Nc1c(C)cccc1C (stereo not shown) [Example 36 product]	81	1	21	5	52
CCCCCC[N+](CCCCCCN1CCCCC1C(=O)Nc1c(C)cccc1C)(CCOCCC)CC(=O)Nc1c(C)cccc1C (stereo not shown) [Example 37 product]	64	1	17	1	45
CCCCCCCC[N+](CCCCCC(=O)O)(CCCOCCCN1CCCCC1C(=O)Nc1c(C)cccc1C)CC(=O)Nc1c(C)cccc1C (stereo not shown) [Example 39 product]	89	2	19	3	61
